Results reported in patent publication US7422863B2, “Molting hormone receptor and method for screening ligand to the receptor” (Kumiai Chemical Industry Co., Ltd., priority 2003, dated 2008).
“Also recorded” adds a separate entry of the source.

Experiments:
Set-up in all cases: species or system Spodoptera litura
EcR-DF/USP-AE complex [1] = test: Screening system: inhibition of [3H]ponasterone A binding to the complex by test compounds; details: for inhibition of the binding of [3H]ponasterone A to the complex: concentration of test compound changed, FIG. 24; for activity of binding to the complex: test compound 10,000 times stronger than [3H]ponasterone A; for activity of binding to the EcR-DF/USP-AE complex: endocrine disrupters and female hormone, FIG. 25
Description: In Example 7, a screening system used for screening an insect inhibitor was constructed based on the results of Examples 1 to 6. As described in Examples 1 to 6, when binding analysis was carried out using ponasterone A as an ecdysone agonist, ponasterone A binding to a complex consisting of EcR-DF and USP-AE was observed. In order to confirm whether or not this system functions as a screening system, the binding of the complex to other ecdysone agonists should also be observed. Thus, using 20-hydroxyecdysone that is an ecdysone active in living insect bodies and tebufenozide (RH-5992) that is a synthetic ecdysone agonist, the binding experiment was carried out between the […] and each of the above compounds.
First, EcR-DF and USP-AE were mixed into a binding buffer, and [^3H]ponasterone A was then added thereto in the same manner as in Example 4. Also, the same experiment was carried out with the exception that 20-hydroxyecdysone or tebufenozide that was 10,000 times stronger than [^3H]ponasterone A was added thereto, so as to obtain nonspecific binding. […] Thus, the same experiment was carried out while the concentration of 20-hydroxyecdysone or tebufenozide was changed.
Subsequently, in the present example, using a screening system in which ability to bind to the EcR-DF/USP-AE complex is used as an index, 4 types of compounds were evaluated in terms of such binding ability. As compounds to be evaluated, 4-nonylphenol, stilbestrol, and diethyl phthalate (endocrine disrupters), and estradiol-17β (female hormone) were used.

[2] = test system: complex consisting of EcR-DF and USP-DE; test: [3H]ponasterone A binding experiment, charcoal dextran method, recombinants expressed in Escherichia coli; details: E. coli-expressed recombinants; 1.37 nM [3H]ponasterone A, 25° C., 40 minutes; FIG. 16
Excerpt: (§1) In Example 4, in order to separate a binding form from a free form, the charcoal dextran method was applied. This is a common method applied when a steroid hormone is used as a ligand. By adding an activated carbon solution coated with dextran to a reaction solution when the reaction is terminated, a ligand that has not bound to a receptor is adsorbed on the activated carbon. Thereafter, the reaction solution is centrifuged, thereby separating an activated carbon fraction (precipitate fraction) from a supernatant fraction in which a receptor/ligand complex exists.
In order to prevent the non-specific binding of ponasterone A to a receptor (a complex consisting of an EcR recombinant and a USP recombinant), 1% BSA was first added to a binding buffer (20 mM HEPES (pH7.4)/5 mM DTT/1 nM PMSF). Thereafter, USP-AE or USP-DE was mixed with the EcR-AF, EcR-DF, EcR-DE, EcR-EF, or EcR-E, purified in Example 2. Thereafter, [^3H]ponasterone A ([24, 25, 26, 27-3H] Ponasterone A (American Radiolabeled Chemicals Inc.)) with a final concentration of 1.37 nM was further added thereto. The obtained mixture was reacted at 25° C. […] A supernatant fraction obtained after centrifugation was mixed with a liquid scintillator, and the radioactivity (DPM) of the obtained mixture was measured using a liquid scintillation counter (ALOKA LSC-5100). […]

EcR-DF/USP-AE complex [3] = test: Scatchard analysis of binding of complex to [3H]ponasterone A; details: EcR-DF:USP-AE 1:1, FIG. 23, read-out: dissociation constant (Kd)
Description: In Example 6, using EcR-DF and USP-AE, the dissociation constant (Kd) of the complex to ponasterone A was obtained as follows. First, EcR-DF was mixed with USP-AE at a molar ratio of 1:1, and [^3H]ponasterone A with various concentrations was then added to the mixture. An activated carbon solution was added to the reaction solution to eliminate free ligands. The amount of the EcR-DF/USP-AE complex binding to [^3H]ponasterone A (total binding amount) was obtained by measuring the radioactivity of a supernatant fraction obtained after centrifugation. Moreover, the same experiment was carried out with the exception that nonradioactive ponasterone A that was 10,000 times stronger than [^3H]ponasterone A was added, so as to obtained non-specific binding. In FIG. 23, the horizontal axis indicates the specific bound amount of [^3H]ponasterone A (nM), the vertical axis indicates specific binding amount (bound)/total binding amount-specific binding amount (free).

[4] = test system: EcR-AF combined with USP-AE or USP-DE; test: [3H]ponasterone A binding experiment with full-length EcR recombinant
Description: Each expression plasmid DNA was independently introduced into COS-7 cells. 48 hours later, each extract was prepared from the cells. In addition, plasmid DNA into which EcR-AF had been inserted and plasmid DNA into which USP-AE had been inserted were co-introduced into COS-7 cells, and an extract was then prepared in the same manner. Moreover, plasmid DNA into which, EcR-DF had been inserted and plasmid DNA into which USP-AE had been inserted were co-introduced into COS-7 cells, and an extract was then prepared in the same manner. Furthermore, plasmid DNA into which EcR-AF had been inserted and plasmid DNA into which USP-DE had been inserted were co-introduced into COS-7 cells, and an extract was then prepared in the same manner. Further, plasmid DNA into which EcR-DF had been inserted and plasmid DNA into which USP-DE had been inserted were co-introduced into COS-7 cells, and an extract was then prepared in the same manner. […]
In order to prevent the non-specific binding of ponasterone A to a receptor (a complex consisting of an EcR recombinant and a USP recombinant), 1% BSA was first added to a binding buffer (20 mM HEPES (pH7.4)/5 mM DTT/1 nM PMSF). […] A supernatant fraction obtained after centrifugation was mixed with a liquid scintillator, and the radioactivity (DPM) of the obtained mixture was measured using a liquid scintillation counter (ALOKA LSC-5100). […]

EcR-DF and USP-DE = test: [3H]ponasterone A binding experiment using COS-7 cell extracts
Description: (§2) Each expression plasmid DNA was independently introduced into COS-7 cells. 48 hours later, each extract was prepared from the cells. In addition, plasmid DNA into which EcR-AF had been inserted and plasmid DNA into which USP-AE had been inserted were co-introduced into COS-7 cells, and an extract was then prepared in the same manner. Moreover, plasmid DNA into which, EcR-DF had been inserted and plasmid DNA into which USP-AE had been inserted were co-introduced into COS-7 cells, and an extract was then prepared in the same manner. Furthermore, plasmid DNA into which EcR-AF had been inserted and plasmid DNA into which USP-DE had been inserted were co-introduced into COS-7 cells, and an extract was then prepared in the same manner. Further, plasmid DNA into which EcR-DF had been inserted and plasmid DNA into which USP-DE had been inserted were co-introduced into COS-7 cells, and an extract was then prepared in the same manner. The expression of a product of interest in the COS-7 cells was confirmed by Western blotting using an anti-FLAG antibody.
(§3) By the aforementioned operations, 4 types of extracts containing each of EcR-AF, EcR-DF, USP-AE, and USP-DE, an extract containing the coexpressed EcR-AF and USP-AE, an extract containing the coexpressed EcR-DF and USP-AE, an extract containing the coexpressed EcR-AF and USP-DE, and an extract containing the coexpressed EcR-DF and USP-DE, were prepared.
(§4) In order to prevent the non-specific binding of ponasterone A to a receptor (a complex consisting of an EcR recombinant and a USP recombinant), 1% BSA was first added to a binding buffer (20 mM HEPES (pH7.4)/5 mM DTT/1 nM PMSF). Thereafter, USP-AE or USP-DE was mixed with the EcR-AF, EcR-DF, EcR-DE, EcR-EF, or EcR-E, purified in Example 2. Thereafter, [^3H]ponasterone A ([24, 25, 26, 27-3H] Ponasterone A (American Radiolabeled Chemicals Inc.)) with a final concentration of 1.37 nM was further added thereto. The obtained mixture was reacted at 25° C. 40 minutes later, the reaction was terminated by addition of 200 μl of an activated carbon solution (0.5% Charcoal, dextran coated (SIGMA)/20 mm HEPES/50 mM NaCl). A supernatant fraction obtained after centrifugation was mixed with a liquid scintillator, and the radioactivity (DPM) of the obtained mixture was measured using a liquid scintillation counter (ALOKA LSC-5100). The obtained measurement value was defined as the total binding amount. Moreover, the same experiment was carried out with the exception that nonradioactive ponasterone A that was 10,000 times stronger than [^3H]ponasterone A was added. Then, the amount of a ligand non-specifically binding to a receptor was obtained. […]

EcR-DF and USP-AE = test: as above
Description: as §2, §3, §4

EcR or USP (single use) = test: [3H]ponasterone A binding experiment, charcoal dextran method, single use of EcR or USP recombinant; details: regardless of length, FIG. 16
Excerpt: as §1
as §4, with “Thereafter, USP-AE or USP-DE was mixed with the EcR-AF, EcR-DF, EcR-DE, EcR-EF, or EcR-E, purified in Example 2.” left out, “LSC-5100).” for “LSC-5100). The obtained measurement value was defined as the total binding amount. Moreover, the same experiment was carried out with the exception that nonradioactive ponasterone A that was 10,000 times stronger than [^3H]ponasterone A was added. Then, the amount of a ligand non-specifically binding to a receptor was obtained.”

[5] = test system: complex consisting of EcR-DF and USP-AE; test: [3H]ponasterone A binding experiment, charcoal dextran method, recombinants expressed in Escherichia coli
Excerpt: as §1
In order to prevent the non-specific binding of ponasterone A to a receptor (a complex consisting of an EcR recombinant and a USP recombinant), 1% BSA was first added to a binding buffer (20 mM HEPES (pH7.4)/5 mM DTT/1 nM PMSF). Thereafter, USP-AE or USP-DE was mixed with the EcR-AF, EcR-DF, EcR-DE, EcR-EF, or EcR-E, purified in Example 2. Thereafter, [^3H]ponasterone A ([24, 25, 26, 27-3H] Ponasterone A (American Radiolabeled Chemicals Inc.)) with a final concentration of 1.37 nM was further added thereto. The obtained mixture was reacted at 25° C. 40 minutes later, the reaction was terminated by addition of 200 μl of an activated carbon solution (0.5% Charcoal, dextran coated (SIGMA)/20 mm HEPES/50 mM NaCl). A supernatant fraction obtained after centrifugation was mixed with a liquid scintillator, and the radioactivity (DPM) of the obtained mixture was measured using a liquid scintillation counter (ALOKA LSC-5100). The obtained measurement value was defined as the total binding amount. Moreover, the same experiment was carried out with the exception that nonradioactive ponasterone A that was 10,000 times stronger than [^3H]ponasterone A was added. Then, the amount of a ligand non-specifically binding to a receptor was obtained. The amount of a ligand specifically binding to a receptor was defined as a value obtained by subtracting the non-specific binding amount from the total binding amount.
The optimal reaction time for a binding reaction between a complex consisting of EcR-DF and USP-AE and a ligand was analyzed as follows. First, USP-AE with various types of concentrations was added to a certain amount of EcR-DF, and the obtained mixture was then reacted at 25° C. for 40 minutes in a water bath. The concentration of ponasterone A in the reaction solution was set at 1.34 nM. […]
The optimal reaction time for a binding reaction between a complex consisting of EcR-DF and USP-AE and a ligand was analyzed as follows. […]
The optimal reaction temperature for a binding reaction between a complex consisting of EcR-DF and USP-AE and a ligand was analyzed as follows. […]

[6] = coexpressed in COS-7 cells, FIG. 17 lanes 7 and 8
[7] = singly expressed in COS-7 cells, then mixed, FIG. 17 lanes 3 and 4

For `CCc1ccc(C(=O)NN(C(=O)c2cc(C)cc(C)c2)C(C)(C)C)cc1` [tebufenozide], the “inhibition of the binding of [3H]ponasterone A to the complex” value (EcR-DF/USP-AE complex [1]) was “concentration-dependently inhibit” and the “activity of binding to the complex” value (EcR-DF/USP-AE complex [1]) was “exhibited activity of binding”.
In the case of `CC(C)CC[C@@H](O)[C@](C)(O)[C@H]1CC[C@@]2(O)C3=CC(=O)[C@@H]4C[C@@H](O)[C@@H](O)C[C@]4(C)[C@H]3CC[C@]12C` [ponasterone A], the “ability to bind to a ligand (specific binding of [3H]ponasterone A)” value [2] is reported as “had ability to bind”, the Kd (EcR-DF/USP-AE complex [3]) is reported as 2.79 nM and the “binding to a ligand (ponasterone A)” value ([4]; COS-7 extracts, coexpression and mixing after single expression, FIG. 17) is reported as “no bindings to a ligand were observed”. For the same compound, the “binding of the full-length EcR recombinant (EcR-AF) to ponasterone A” value ([4]; both Escherichia coli and mammalian cell expression systems) was “extremely weak”, the “binding to a ligand (ponasterone A)” value (EcR-DF and USP-DE; [6]) was “a strong binding to a ligand was observed” and the “binding to a ligand (ponasterone A)” value (EcR-DF and USP-DE; [7]) was “no such bindings were observed”. The “binding to a ligand (ponasterone A)” value (EcR-DF and USP-AE; [6]) was “a strong binding to a ligand was observed”, the “binding to a ligand (ponasterone A)” value (EcR-DF and USP-AE; [7]) was “no such bindings were observed” and the “specific binding of [3H]ponasterone A” value (EcR or USP (single use)) was “no specific bindings were observed”. For the same compound, the “time necessary for saturation of the binding” value ([5]; 25° C., 1.34 nM ponasterone A, EcR-DF:USP-AE 1:1) was 60 min, the “ability to bind to a ligand (specific binding of [3H]ponasterone A)” value ([5]; E. coli-expressed recombinants, 1.37 nM [3H]ponasterone A, 25° C., 40 minutes, FIG. 16) was “had ability to bind” and the “effect of salt (NaCl) concentration on specific binding of ligand to the complex” value ([5]; NaCl 0, 50, 100, 300, 500 mM, 25° C., FIG. 21) was “as the salt concentration increased, the specific binding of a ligand to the above complex decreased”. The “time necessary for saturation of the binding” value ([5]; low-temperature chamber at 4° C.) was 480 min.
`CCCCCCCCCc1ccc(O)cc1` [4-nonylphenol] was tested, and the “activity of binding to the EcR-DF/USP-AE complex” value (EcR-DF/USP-AE complex [1]) was “exhibited activity of binding; also recorded: exhibited strong binding activity”.
`CC(C)(O)CC[C@@H](O)[C@](C)(O)[C@H]1CC[C@@]2(O)C3=CC(=O)[C@@H]4C[C@@H](O)[C@@H](O)C[C@]4(C)[C@H]3CC[C@]12C` [20-hydroxyecdysone] was tested, and the “inhibition of the binding of [3H]ponasterone A to the complex” value (EcR-DF/USP-AE complex [1]) was “concentration-dependently inhibit” and the “activity of binding to the complex” value (EcR-DF/USP-AE complex [1]) was “exhibited activity of binding”.
`C[C@]12CC[C@@H]3c4ccc(O)cc4CC[C@H]3[C@@H]1CC[C@@H]2O` [estradiol-17β] was tested, and the “activity of binding to the EcR-DF/USP-AE complex” value (EcR-DF/USP-AE complex [1]) was “exhibited activity of binding”.
For `CC/C(=C(/CC)c1ccc(O)cc1)c1ccc(O)cc1` [stilbestrol], the “activity of binding to the EcR-DF/USP-AE complex” value (EcR-DF/USP-AE complex [1]) was “exhibited activity of binding; also recorded: exhibited strong binding activity”.
